From PMC13266999, “Designing Antibiotics with Inherent Resistance to Efflux as a Strategy to Revive Discovery against Multidrug-Resistant Pathogens” (Journal of Medicinal Chemistry, 2026)
≈ marks a conversion by molar mass, not a printed value. Where “and” joins values, the source holds several entries; their conditions need not be identical. Identical values can stand only once. Like-named read-outs stand apart in the source and are kept apart here.

Legend:
[1] = biological target: CYP2B6 (Homo sapiens, UniProt P20813); assay: CYP inhibition; conditions: human, human liver microsomes, probe bupropion, CYP2B6 inhibition, HLM, bupropion substrate
Chain of CYP2B6 (P20813 whole entry): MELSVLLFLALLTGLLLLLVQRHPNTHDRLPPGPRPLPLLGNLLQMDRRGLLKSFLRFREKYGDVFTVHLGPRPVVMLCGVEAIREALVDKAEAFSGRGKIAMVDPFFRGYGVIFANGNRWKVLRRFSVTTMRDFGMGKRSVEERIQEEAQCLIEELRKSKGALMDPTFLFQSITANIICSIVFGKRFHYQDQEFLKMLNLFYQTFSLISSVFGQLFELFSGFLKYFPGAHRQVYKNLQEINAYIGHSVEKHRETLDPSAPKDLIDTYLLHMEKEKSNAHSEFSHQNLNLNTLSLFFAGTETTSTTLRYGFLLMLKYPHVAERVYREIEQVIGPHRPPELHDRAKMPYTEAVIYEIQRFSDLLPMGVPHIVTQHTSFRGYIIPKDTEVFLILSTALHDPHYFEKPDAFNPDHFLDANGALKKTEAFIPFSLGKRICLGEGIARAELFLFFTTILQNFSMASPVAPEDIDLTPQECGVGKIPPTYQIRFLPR
Method: Cytochrome P450 inhibition was assessed in vitro using human recombinant enzymes in microsomal preparations. […] Enzyme activity was quantified by monitoring formation of substrate-specific metabolites, and percent inhibition was calculated relative to vehicle control.

[2] = Murine thigh infection model; conditions: oral 50 mg/kg at 2, 8, and 14 h postinfection, at 26 h
[3] = system: SafetyScreen44 targets; assay: SafetyScreen44 panel, remaining targets; format: binding, human; conditions: 10 μM
Method: (§1) Off-target pharmacology was evaluated using the Eurofins SafetyScreen44 in vitro panel. […] Binding assays were performed using radioligand displacement, and enzyme or uptake assays measured inhibition of control activity using validated detection methods (scintillation counting, fluorimetry or photometry). Responses were expressed as percent inhibition of control binding or activity. Based on Eurofins interpretation guidelines, effects ≥50% were considered significant, effects between 25% and 50% weak to moderate, and effects <25% were not considered biologically relevant.

[4] = system: S. aureus; assay: MIC (microbroth dilution); format: cell-based, Staphylococcus aureus
In short: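 Overnight stationary-phase cultures back-diluted and tested by broth microdilution with 2-fold compound series. MIC is lowest concentration with no visible growth, with OD600 also read. Separate runs included polymyxin B nonapeptide at 30 μg/mL final as outer-membrane permeabilizer.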

[5] = biological target: T1, H1 (h) (Homo sapiens, UniProt P35367); assay: SafetyScreen44; conditions: antagonist radioligand, specific binding, 1.0E-05 M
T1 construct: purchased Eurofins (SafetyScreen44)
T1 sequence (P35367 whole entry): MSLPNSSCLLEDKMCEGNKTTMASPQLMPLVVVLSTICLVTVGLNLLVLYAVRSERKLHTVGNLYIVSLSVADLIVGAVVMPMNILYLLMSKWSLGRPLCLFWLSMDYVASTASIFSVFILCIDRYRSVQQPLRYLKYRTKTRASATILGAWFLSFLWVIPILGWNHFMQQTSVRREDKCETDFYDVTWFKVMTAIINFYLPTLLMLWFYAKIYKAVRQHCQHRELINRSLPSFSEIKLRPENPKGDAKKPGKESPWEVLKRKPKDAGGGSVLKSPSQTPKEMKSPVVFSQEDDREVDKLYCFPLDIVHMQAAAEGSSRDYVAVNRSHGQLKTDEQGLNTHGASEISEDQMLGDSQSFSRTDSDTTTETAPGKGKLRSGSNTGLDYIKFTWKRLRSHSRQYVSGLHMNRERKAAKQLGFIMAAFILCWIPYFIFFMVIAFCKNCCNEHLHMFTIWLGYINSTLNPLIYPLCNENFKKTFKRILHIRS
Method: as §1

[6] = system: Na+ channel (site 2); assay: SafetyScreen44; conditions: antagonist radioligand, specific binding, 1.0E-05 M
Method: as §1

[7] = system: Acinetobacter baumannii; assay: MIC (microbroth dilution); format: cell-based
In short: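 Microbroth dilution in tryptic soy broth; Streptococcus spp. in cation-adjusted Mueller Hinton broth with 2.5% lysed horse blood, inocula from overnight stationary-phase cultures. MIC is lowest concentration without visible growth, OD600 read. Parallel MICs run with 30 μg/mL polymyxin B nonapeptide (final) as outer-membrane permeabilizer.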

[8] = system: S. pyogenes; assay: MIC (microbroth dilution); format: cell-based, Streptococcus pyogenes; conditions: for MIC: Streptococcus pyogenes
Method: All bacteria were maintained on tryptic soy agar (TSA), except Streptococcus spp., which were maintained on Columbia agar plates containing 5% horse blood. All bacterial assays were carried out in tryptic soy broth (TSB), except for Streptococcus spp. which were grown in cation-adjusted Mueller Hinton broth containing 2.5% lysed horse blood. Bacteria were grown to stationary phase in liquid culture overnight, with shaking at 200 rpm, before being back diluted to the relevant starting concentration for each assay below. MICs were measured by the microbroth dilution method. […] Absorbance at OD600 was read on a CLARIOstar spectrophotometer (BMG Labtech) and the MIC was defined as the minimum concentration of compound where no visible growth was detected. The compounds were prepared as a DMSO stock and equivalent concentrations of DMSO had no effect on bacterial growth. MICs were also performed in the presence of the outer membrane permeator, polymyxin b nonapeptide (PMBN) following the same MIC method but with the following variation. The 2-fold dilution series of compound was prepared as above, then 50 μL of PMBN at a final concentration of 30 μg/mL was added to relevant wells, while 50 μL/well of blank media was added to the remaining wells. Bacteria were then added at 50 μL/well for a starting concentration as above. Thirty μg/mL of PMBN had no effect on bacterial growth. The MICs were read and defined as above. All animal procedures were performed by the contract research organization Pharmacology Discovery Services Taiwan in accordance with the Guide for the Care and Use of Laboratory Animals. The procedures were approved by the Institutional Ethics Committee of Pharmacology Discovery Services Taiwan, Ltd. (approval no. AB127662), in compliance with animal welfare legislation in Taiwan.

## C[C@H]1COc2c(N3CC[C@@H](Nc4ncccn4)C3)c(F)cc3c(=O)c(C(=O)O)cn1c23 [Compound 46, (S)-9-Fluoro-3-methyl-7-oxo-10-((R)-3-(pyrimidin-2-ylamino)pyrrolidin-1-yl)-2,3-dihydro-7H-[1,4]oxazino[2,3,4-ij]quinoline-6-carboxylic acid]
[1]
  inhibition at 10 µM: -1.3%
[2]
  bacterial counts in thigh: 3.19 log10 CFU/g
[2]; 50 mg/kg
  reduction relative to vehicle: 5.17 log10 CFU/g and > 4 log10 CFU/g
[3]
  inhibition, all other / remaining targets: < 25%
[4]; NCTC 13616
  MIC: 0.5 to 1 µg/mL
[4]; NorA-overexpressing vs WT
  fold difference in MIC, SA-1199B vs SA-1199: 2 fold
[4]; SA-1199B (NorA-overexpressing)
  MIC: 0.03 µg/mL (≈ 0.0705 µM)
[4]; Staphylococcus aureus, 1199, + 4% albumin, read-out: MIC
  MIC: 0.03 to 0.06 µg/mL
[4]; Staphylococcus aureus, 1199b, + 4% albumin, read-out: MIC
  MIC: 0.06 µg/mL
[4]; Staphylococcus aureus, ATCC9144, ATCC 9144, + 4% albumin, read-out: MIC
  MIC: 0.03 to 0.06 µg/mL
[4]; Staphylococcus aureus, ATCC9144, ATCC 9144, read-out: MIC
  MIC: ≤ 0.03 µg/mL
[4]; Staphylococcus aureus, NCTC13277, NCTC 13277, + 4% albumin, read-out: MIC
  MIC: 1 to 2 µg/mL
[4]; Staphylococcus aureus, NCTC13277, NCTC 13277, read-out: MIC
  MIC: 1 µg/mL (≈ 2.35 µM)
[4]; Staphylococcus aureus, NCTC13616, NCTC 13616, + 4% albumin, read-out: MIC
  MIC: 1 to 2 µg/mL
[4]; Staphylococcus aureus, NCTC13616, NCTC 13616, read-out: MIC
  MIC: 0.5 µg/mL (≈ 1.18 µM)
[4]; Staphylococcus aureus, SA-1199B (NorA-overexpressing)
  MIC: 0.016 µg/mL (≈ 0.0376 µM)
[4]; fluoroquinolone-resistant NCTC 13616 and NCTC 13277
  fold potentiation compared to levofloxacin: 16–32 fold
[5]
  % Inhibition: 5.564%
[6]
  % Inhibition: 23.6539%
[7]; Acinetobacter baumannii, 86, oxa23, read-out: MIC
  MIC: 8 µg/mL (≈ 18.8 µM)
[7]; Acinetobacter baumannii, 96, oxa23, read-out: MIC
  MIC: 4 µg/mL (≈ 9.4 µM)
[7]; Acinetobacter baumannii, 113, oxa23, read-out: MIC
  MIC: 4 µg/mL (≈ 9.4 µM)
[7]; Acinetobacter baumannii, A118, read-out: MIC
  MIC: ≤ 0.06 µg/mL
[7]; Acinetobacter baumannii, A318, read-out: MIC
  MIC: 8 µg/mL (≈ 18.8 µM)
[7]; Acinetobacter baumannii, A319, read-out: MIC
  MIC: 8 µg/mL (≈ 18.8 µM)
[7]; Acinetobacter baumannii, A600 colR, read-out: MIC
  MIC: 4 µg/mL (≈ 9.4 µM)
[7]; Acinetobacter baumannii, A601 colS, read-out: MIC
  MIC: ≤ 0.06 µg/mL
[7]; Acinetobacter baumannii, AB01335 adeG183::T26
  MIC: 4 µg/mL (≈ 9.4 µM)
[7]; Acinetobacter baumannii, AB5075-UW, read-out: MIC
  MIC: 4 µg/mL (≈ 9.4 µM)
[7]; Acinetobacter baumannii, AB05215 adeS132::T26
  MIC: 4 µg/mL (≈ 9.4 µM)
[7]; Acinetobacter baumannii, AB05218 adeS141::T26
  MIC: 4 µg/mL (≈ 9.4 µM)
[7]; Acinetobacter baumannii, AB05219 adeR103::T26
  MIC: 4 µg/mL (≈ 9.4 µM)
[7]; Acinetobacter baumannii, AB05222 adeR160::T101
  MIC: 4 µg/mL (≈ 9.4 µM)
[7]; Acinetobacter baumannii, AB05226 adeA165::T26
  MIC: 4 µg/mL (≈ 9.4 µM)
[7]; Acinetobacter baumannii, AB05227 adeA138::T26
  MIC: 2 µg/mL (≈ 4.7 µM)
[7]; Acinetobacter baumannii, AB05228 adeB150::T26
  MIC: 1 µg/mL (≈ 2.35 µM)
[7]; Acinetobacter baumannii, AB05230 adeB181::T26
  MIC: 1 µg/mL (≈ 2.35 µM)
[7]; Acinetobacter baumannii, ATCC17978, ATCC 17978, read-out: MIC
  MIC: ≤ 0.25 µg/mL
[7]; Acinetobacter baumannii, BAA1709, BAA-1709, read-out: MIC
  MIC: 0.125 µg/mL (≈ 0.294 µM)
[7]; Acinetobacter baumannii, BAA1710, BAA-1710 (AYE), read-out: MIC
  MIC: 4 µg/mL (≈ 9.4 µM)
[7]; Acinetobacter baumannii, BAA2093, BAA-2093, read-out: MIC
  MIC: 0.03 to 0.06 µg/mL (≈ 0.0705 to 0.141 µM)
[7]; Acinetobacter baumannii, NCTC10303, NCTC 10303, read-out: MIC
  MIC: ≤ 0.06 µg/mL
[7]; Acinetobacter baumannii, NCTC12156, NCTC 12156, read-out: MIC
  MIC: 0.125 µg/mL (≈ 0.294 µM)
[7]; Acinetobacter baumannii, NCTC13302, NCTC 13302, oxa24, read-out: MIC
  MIC: 4 µg/mL (≈ 9.4 µM)
[7]; Acinetobacter baumannii, NCTC13424, NCTC 13424, oxa23, read-out: MIC
  MIC: > 64 µg/mL
[7]; Acinetobacter baumannii, T strain, read-out: MIC
  MIC: 8 µg/mL (≈ 18.8 µM)
[7]; Acinetobacter baumannii, UKA1, oxa23, read-out: MIC
  MIC: 4 µg/mL (≈ 9.4 µM)
[7]; Acinetobacter baumannii, UKA2, Low resistance, read-out: MIC
  MIC: 8 µg/mL (≈ 18.8 µM)
[7]; Acinetobacter baumannii, UKA9, read-out: MIC
  MIC: ≤ 0.06 µg/mL
[7]; Acinetobacter baumannii, UKA12, oxa23, read-out: MIC
  MIC: 2 µg/mL (≈ 4.7 µM)
[7]; Acinetobacter baumannii, UKA13, oxa23, read-out: MIC
  MIC: 2 µg/mL (≈ 4.7 µM)
[7]; Acinetobacter baumannii, UKA15, oxa23, read-out: MIC
  MIC: 1 µg/mL (≈ 2.35 µM)
[7]; Acinetobacter baumannii, UKA19, read-out: MIC
  MIC: 0.25 µg/mL (≈ 0.588 µM)
[7]; Acinetobacter baumannii, W1, read-out: MIC
  MIC: 4 µg/mL (≈ 9.4 µM)
[8]; 8198, read-out: MIC
  MIC: ≤ 0.03 µg/mL
[8]; 12048
  MIC: 0.03 to 0.125 µg/mL (≈ 0.0705 to 0.294 µM)
[8]; 13736, read-out: MIC
  MIC: 0.06 µg/mL (≈ 0.141 µM)
[8]; 13737
  MIC: 0.125 µg/mL (≈ 0.294 µM)
[8]; 13738
  MIC: 0.125 µg/mL (≈ 0.294 µM)
[8]; 80661
  MIC: 0.06 to 0.125 µg/mL (≈ 0.141 to 0.294 µM)
[8]; 81017
  MIC: 0.125 µg/mL (≈ 0.294 µM)
[8]; 82434, read-out: MIC
  MIC: 0.06 µg/mL (≈ 0.141 µM)
[8]; 82896, read-out: MIC
  MIC: 0.06 µg/mL (≈ 0.141 µM)
[8]; 83581
  MIC: 0.06 to 0.125 µg/mL (≈ 0.141 to 0.294 µM)
[8]; 84285, read-out: MIC
  MIC: 0.06 µg/mL (≈ 0.141 µM)
[8]; 86519
  MIC: 0.125 µg/mL (≈ 0.294 µM)
[8]; n = 12 isolates
  MIC range: 0.06 to 0.125 µg/mL
